Data reported in US20130014428A1, “METHODS OF MONITORING AND CONTROLLING THE WALNUT TWIG BEETLE, PITYOPHTHORUS JUGLANDIS” (The United States of America as Represented by the …, priority 2011, published 2013).

How the values were obtained:
[1] = tested on: walnut twig beetle (WTB), Pityophthorus juglandis; experiment: Example 1 Field Test 3: flight response to X with and without enantiomers of trans-conophthorin; type: in vivo; conditions: yellow sticky card traps, Pleasanton CA
Protocol: Field Bioassays of Semiochemicals. To test the attractiveness of the various compounds of interest, some of the commercially available materials listed above were poured into 15 ml capped polyethylene bottles (Product #s A1-1050/002, A1-1055/002; Contech Enterprises Inc., Delta, British Columbia, Canada) and attached to yellow sticky card traps (Trécé, Adair, OK). In addition, synthesized (+) and (−) enantiomers of trans-conophthorin were tested in 400 μl polyethylene Eppendorf microcentrifuge tubes. Four field studies were conducted (Table 2) that tested the flight responses to: 3-methyl-2-buten-l-ol and related isomers (Field Test 1); 3-methyl-2-buten-l-ol with and without racemic trans-conophthorin (Field Test 2); 3-methyl-2-buten-l-ol with and without the purified enantiomers of trans-conophthorin (Field Test 3); and 3-methyl-2-buten-l-ol with and without racemic chalcogran (Field Test 4).
Statistical Analysis. Field Tests 1-4 were each analyzed for treatment effect by using Friedman's non-parametric analysis of variance. (See Zar, J. H. 2010. Biostatistical Analysis, 5th Ed. Pearson Prentice Hall, New Jersey). Males and females were subjected to separate analyses. All treatments within experiments yielding a significant treatment effect were compared by using an a posteriori Nemenyi test (Zar 2010) with experimentwise α=0.05. Sex ratios of responding WTB were determined using Cochran's method for unbiased sampling (See Cochran, W. G. 1977. Sampling Techniques, 3rd ed. John Wiley, New York), with 95% confidence intervals calculated by using the Clopper-Pearson method. (See Zar, J. H. 2010. Biostatistical Analysis, 5th Ed. Pearson Prentice Hall, New Jersey).

WTB [2] = experiment: Six release rate experiment, 4-unit Lindgren funnel traps; type: in vivo, Pityophthorus juglandis; conditions: for trap catches, female WTB / trap catches, male WTB: N=99
Protocol: In a separate experiment, the flight response of WTB to six release rates of 3-methyl-2-buten-1-ol was tested at the same location in early summer. The six release rates were: 1) 165 mg/d, from a capped 15 ml polyethylene bottle with a 0.48 cm hole drilled in the side of the cap, charged with 15 ml 3-methyl-2-buten-1-ol (Sigma-Aldrich); 2) 15-80 mg/d from the commercial LDPE plastic pouch (Contech); 3) 5 mg/d from a capped 15 ml polyethylene bottle charged with 15 ml 3-methyl-2-buten-1-ol (Sigma-Aldrich); 4) 5 mg/d from a capped 15 ml polyethylene bottle charged with 1 ml 3-methyl-2-buten-1-ol (Sigma-Aldrich); 5) 0.2 mg/d from a 400 μl closed Eppendorf polyethylene microcentrifuge tube charged with 300 μl 3-methyl-2-buten-1-ol (Sigma-Aldrich); and 6) an unbaited control. The 15 ml polyethylene bottles were purchased from Contech Enterprises (product #100000582/583); the 400 μl polyethylene Eppendorf microcentrifuge tubes were purchased from Evergreen Scientific (product #214-3417-020, Los Angeles, Calif.). These release devices were attached to 4-unit Lindgren funnel traps as described above. The six treatments were replicated in three spatial blocks and the treatments were re-randomized among the six trap stations in a block each time the traps were emptied (nearly every day). Statistical Analyses. Analysis of treatment effects for the pouch vs. bottle experiment was done by using a sign test. (See Zar, J. H. 2010. Biostatistical Analysis. 5th ed. Pearson Prentice Hall, Englewood Cliffs, N.J.) The other four experiments were analyzed for treatment effect by using Friedman's non-parametric analysis of variance. Id. In all experiments, males and females were analyzed separately. All treatments within experiments yielding a significant treatment effect were compared by using an a posteriori Nemenyi test with experimentwise α=0.05. Id. For all experiments, differences among proportions of female WTB responding to treatments were analyzed by comparing 95% confidence intervals determined with the Clopper-Pearson method. Id.

WTB [3] = experiment: Trap height: 4-unit Lindgren funnel traps baited with X; type: in vivo, Pityophthorus juglandis; conditions: for trap catches, female WTB / trap catches, male WTB: 15 to 80 mg/d
Protocol: In another experiment, the effect of trap height on the flight response of WTB was also tested with 4-unit Lindgren funnel traps at Wolfskill Experimental Orchards from late summer to early fall. The traps were each baited with the commercial version of 3-methyl-2-buten-1-ol (15 to 80 mg/d, Contech pouch) and placed at 45, 123, 199, and 271 cm (hereafter 0.5, 1.2, 2.0, and 2.7 m) from the orchard floor (measured from the floor to the middle of the trap). Traps were attached to individual 3 m metal conduit poles by using a thick piece of wire threaded through a hole drilled in the conduit pole and the eyebolt attached to the top of the funnel trap. (See Seybold, S. J., Dallara, P. L., Hishinuma, S. M., and Flint, M. L. Detecting and Identifying the Walnut Twig Beetle: Monitoring Guidelines for the Invasive Vector of Thousand Cankers Disease of Walnut, University of California Agriculture and Natural Resources, Statewide Integrated Pest Management Program, 11 pp., Apr. 30, 2012.) Three blocks of treatments were installed, trap catches were collected daily during periods of high flight activity, and the treatments were re-randomized among the four trap stations within a block each time that the traps were emptied.
Statistical Analyses. Analyses of treatment effects for the tests of trap type were performed by using Friedman's non-parametric analysis of variance or a sign test, depending on the number of treatments. (See Zar, J. H. 2010. Biostatistical Analysis. 5th ed. Pearson Prentice Hall, Englewood Cliffs, N.J.) Analysis of treatment effects for the Rain•X experiment was performed by using a Wilcoxon paired sample test. Id. Multiple comparisons for experiments with more than two treatments were performed with an a posteriori Nemenyi test with experimentwise α=0.05. Id. In all cases, male and female WTB were analyzed separately. Proportions of female WTB responding to treatments were calculated and 95% confidence intervals determined by using the Clopper-Pearson method. Id.

## CC(C)=CCO [X, 3-methyl-2-buten-1-ol]
[1]
  proportion of females responding: 0.80
[1]; about one month in fall, N=15
  trap catches, female WTB: 47
  trap catches, male WTB: 12
WTB [2]; 0.2 mg/d
  proportion of females responding: 0.66
  trap catches, female WTB: 623
  trap catches, male WTB: 323
WTB [2]; 5 mg/d (1 ml load)
  proportion of females responding: 0.71
  trap catches, female WTB: 1084
  trap catches, male WTB: 453
WTB [2]; 5 mg/d (15 ml load)
  proportion of females responding: 0.72
  trap catches, female WTB: 1534
  trap catches, male WTB: 608
WTB [2]; 165 mg/d
  proportion of females responding: 0.75
WTB [2]; 165 mg/d (15 ml load)
  trap catches, female WTB: 612
  trap catches, male WTB: 205
WTB [2]; 15-80 mg/d
  proportion of females responding: 0.77
  trap catches, female WTB: 934
  trap catches, male WTB: 285
WTB [2]; six release rates compared
  release rate giving highest flight response: highest response for both sexes was to the 5 mg/d release loaded with 15 ml of pheromone
WTB [3]; 0.5 m trap
  proportion of females responding: 0.76
  trap catches, female WTB: 392
  trap catches, male WTB: 125
WTB [3]; 1.2 m trap
  proportion of females responding: 0.77
  trap catches, female WTB: 469
  trap catches, male WTB: 139
WTB [3]; 2.0 m trap
  proportion of females responding: 0.77
  trap catches, female WTB: 875
  trap catches, male WTB: 265
WTB [3]; 2.7 m trap
  proportion of females responding: 0.77
  trap catches, female WTB: 757
  trap catches, male WTB: 225
